Values joined by “and” are separate entries in the source; they are usually repeats but may differ in a detail not shown here. Identical values can stand only once.
Key:
Format in all cases: in vivo
hairless SKH1 mice = experiment: Test on recovery of skin barrier disruption in mice (TEWL); settings: 10 mM
Protocol: The procedure was completed when transepidermal water loss (TEWL) achieved ≧40 mg/cm^2/h. TEWL was assessed with a Tewameter TM210 (Courage Khazaka, Cologne, Del.). Immediately after barrier disruption 30 μl the test compound was applied at 10 mM concentration. Control animals were treated similarly with the solvent (ethanol/propylene glycol, 3/7 (v/v)) alone. TEWL was measured before, immediately after, and at 3 hrs after barrier disruption. In each animal, the percentage recovery was calculated using the formula: (1−[TEWL at 3 hrs−base line TEWL]/[TEWL immediately after stripping−base line TEWL])×100%.

Crl:NMRI mice = experiment: Anti-inflammatory activity in murine model of allergic contact dermatitis (ACD), oxazolone; settings: for Δ Auricular weights Mean (SD): 10 μl topical 30 min after challenge, n: 8 animals per group; for % Inhibition of inflammatory swelling Mean ± SE: single topical application, p<0.001 vs solvent-treated animals
Protocol: Method: Crl:NMRI mice were sensitized on the shaved abdomen with 50 μl of 2% oxazolone on day 1 and challenged with 10 μl oxazolone on the inner surface of the right ear on day 8. The unchallenged left ears served as normal controls and dermatitis was evaluated from the difference in auricular weight (taken as a measure of inflammatory swelling) on day 9. The animals were treated topically with 10 μl test compound or the solvent only 30 min after the challenge. The efficacy of the treatment was calculated as the percentage inhibition of inflammatory auricular swelling relative to animals treated with the vehicle alone.

[1] = test system: Swine Model of Allergic Contact Dermatitis (ACD); experiment: Anti-inflammatory activity in swine model of allergic contact dermatitis (ACD), DNFB
Protocol: Eight days before the elicitation of the ACD, […] of 10% 2,4-dinitrofluorobenzene (DNFB, dissolved in DMSO/acetone/olive oil [1/5/3, v/v/v]) were applied epicutaneously in divided volumes onto the basis of both ears and onto both groins (100 μl/site) for sensitization. The challenge reactions were elicited with 15 μl of DNFB (1.0%) on contralateral test sites (each 7 cm^2 in size) of the shaved dorsolateral back. For treatment, the test compound and the placebo (solvent only) were applied contralaterally to 2 test sites in each animal 0.5 and 6 hrs after the challenge. The test sites were clinically examined 24 hrs after the challenge when inflammation peaked. The changes were scored on a scale from 0 to 4 (Table 15), allowing a combined maximal score of 12 per designated site. Skin reddening was measured reflectometrically using a* values.

## CCC(C)[C@@H]1NC(=O)[C@H](Cc2ccc(O)cc2)N(C)C(=O)[C@H](C(C)CC)N2C(=O)C(CC[C@@H]2O)NC(=O)[C@H](CC(C)C)NC(=O)[C@@H](NC(=O)[C@H](CCC(N)=O)NC(=O)C(C)C)[C@@H](C)OC1=O (stereo partly drawn) [formula II]
Hairless SKH1 mice; 30 μl topical, TEWL at 3 hrs, n: 4 animals per group
  % Recovery in barrier disruption Mean (SD values): 72.0 (9.1) %
Hairless SKH1 mice; single topical application, 3 hrs after barrier disruption, p<0.05
  acceleration of barrier repair compared to repair in mice treated with the solvent alone: 57%
Crl:NMRI mice; 10 mM
  Δ Auricular weights Mean (SD): 17.0 (4.8)
  % Inhibition of inflammatory swelling Mean ± SE: 40% and 40 ± 6.9%
Crl:NMRI mice; 30 mM
  Δ Auricular weights Mean (SD): 15.3 (5.4)
  % Inhibition of inflammatory swelling Mean ± SE: 46% and 46 ± 7.5%
[1]; 1% solution applied 0.5 and 6 hrs after challenge, 24 hrs, n: 8 test sites
  A* value (Mean), skin reddening measured reflectometrically: 8.6
[1]; 1% solution applied 0.5 and 6 hrs after challenge, scored at 24 hrs, maximal score 12, n: 8 test sites
  Clinical score (Mean): 5.1
[1]; Table 16, 1% test compound
  Inhibition vs placebo-treated sites, A* value: 27.0
  Inhibition vs placebo-treated sites, clinical score: 29.9
[1]; treated twice with 1% solution, p<0.01
  inhibition of clinical inflammatory changes: 30%
[1]; treated twice with 1% solution, p<0.05
  inhibition of measured skin redness: 27%

Reference: patent US9127044B2, “Cyclic depsipeptides” (NOVARTIS AG, priority 2007, dated 2015)
